The record followed here is patent US20260317319A1, “NOVEL ERGOLINES AND METHODS OF TREATING MOOD DISORDERS” (Gilgamesh Pharma Inc., priority 2023, published 2026).

The subject of one data set is Sprague Dawley rats. The experiment in a line: Forced swim test (FST) in rats. Type of data set: in vivo, rat. The following applies: rat FST, dose 20 mg/kg, positive control; average of 3 independent experiments. Here is the method: Compound 1 induced antidepressant-like effects in the forced swim test (FST) in rats with a 23.5-h pre-treatment time (FIG. 2).
Animals. Male Sprague Dawley rats, aged 9-10 weeks, were used in this experiment. Animals were housed in groups of 2 under controlled temperature (22±3° C.) and relative humidity (30-70%) conditions, with 12-hour light/dark cycles, and with ad libitum food and water. This study was carried out in strict accordance with the requirements of the Committee for the Purpose of Control and Supervision of Experiments on Animals (CPCSEA), India. All efforts were made to minimize suffering.
Forced Swim Test (FST). […] Rats were handled for about 2 min daily for the 5 days prior to the beginning of the experimental procedure. On the first day of the experiment (i.e., Day 0), post randomization, training swim sessions (Swim 1) were conducted between 12:00 and 18:00 h with all animals by placing rats in individual glass cylinders (46 cm tall×20 cm in diameter) containing 23-25° C. water 30 cm deep for 15 minutes. At the conclusion of Swim 1, animals were dried with paper towels, placed in heated drying cages for 15 minutes, and then returned to their home cages. Animals were then administered the appropriate drug or vehicle treatment(s), as described above. For clarity, a compound administration time of 23.5 h before Swim 2 means 0.5 h after the start of Swim 1 and 0.25 h after the completion of Swim 1 (i.e., immediately after return to the home cage). On Day 1 (i.e., 24 h after start of Swim 1), animals performed the test swim (Swim 2) for a period of 5 min but otherwise under the same conditions as Swim 1. During all swim sessions, the water was changed between each animal.
Behavioral scoring was conducted by observers who were blind to the treatment groups. Animals were continuously observed during Swim 2 and the total time spent engaging in the following behaviors was recorded: immobile, swimming, and climbing. A rat was judged to be immobile when it remained floating in the water without struggling and was making only those movements necessary to keep its head above water. A rat was judged to be swimming when it made active swimming motions, more than necessary to merely maintain its head above water (e.g., moving around in the cylinder). A rat was judged to be climbing when it made active movements with its forepaws in and out of the water, usually directed against the walls.
Statistical Analysis. The data points shown represent the mean±standard error of the mean (SEM). Analysis was performed using GraphPad Prism 6. Comparisons between groups were performed using the one-way analysis of variance (ANOVA), followed by Dunnett's test for comparisons to vehicle.
Additional disclosed compounds were tested in the forced swim test (FST) in rats according to the procedure described in Example 58 (compounds 18 and 19 administered in 10% DMSO in saline).

Data set [1] in a line: in vitro. The class given is in vitro ADME, human. The following applies: human, microsomes, HLM 0.50 mg/mL, NADPH 1 mM, 1 μM compound, pH 7.4, 37° C., 60 min.
Data set [2] in a line: in vitro. The following applies: for metabolised: human, microsomes, role: substrate, metabolite 83 formed in HLM, read-out: Metabolite Formation (percent formation of metabolite 83). The class given is in vitro ADME, human. Here is the method:
The ability of deuteration in compound 68 to attenuate formation of metabolite 83 compared to the same transformation of the non-deuterated compound 18 was also determined.
HLM Stability. Pooled HLM from adult male and female donors (Corning 452117) were used.

Data set [3] can be described thus: in vitro. Conditions: mouse, microsomes, MLM (male CD-1) 0.50 mg/mL, NADPH 1 mM, 1 μM compound, pH 7.4, 37° C., 60 min. The class given is in vitro ADME, mouse. From the text: MLM Stability Pooled MLM from male CD-1 mice (BIOIVT M00501) were used.
Data set [4] in a line: in vitro. The class given is in vitro ADME, rat. Conditions: rat, microsomes, RLM (male Sprague-Dawley) 0.50 mg/mL, NADPH 1 mM, 1 μM compound, pH 7.4, 37° C., 60 min. From the text: RLM Stability Pooled RLM from male Sprague-Dawley rats (Xenotech R1000) were used.
In a further data set the target is 5-HT2A receptor (Homo sapiens, UniProt P28223). The experiment in a line: biochemical. Also on record: expressed in transfected cells; host or cells: HEK293, stably transfected. Type of data set: binding. The following applies: [3H]ketanserin 1 nM; HEK293 stable cell line; 1 h, 25 °C. An outline of the steps:
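Binding affinity comes from a [^3H]ketanserin radioligand assay run under literature-adapted conditions.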

The mark [5] stands for this setting: read-out: Intrinsic clearance (Clint).

SMILES strings stand for the structures. Where two headings read alike, the source gives them in different places.

5-HT2A receptor, sequence (P28223 whole entry): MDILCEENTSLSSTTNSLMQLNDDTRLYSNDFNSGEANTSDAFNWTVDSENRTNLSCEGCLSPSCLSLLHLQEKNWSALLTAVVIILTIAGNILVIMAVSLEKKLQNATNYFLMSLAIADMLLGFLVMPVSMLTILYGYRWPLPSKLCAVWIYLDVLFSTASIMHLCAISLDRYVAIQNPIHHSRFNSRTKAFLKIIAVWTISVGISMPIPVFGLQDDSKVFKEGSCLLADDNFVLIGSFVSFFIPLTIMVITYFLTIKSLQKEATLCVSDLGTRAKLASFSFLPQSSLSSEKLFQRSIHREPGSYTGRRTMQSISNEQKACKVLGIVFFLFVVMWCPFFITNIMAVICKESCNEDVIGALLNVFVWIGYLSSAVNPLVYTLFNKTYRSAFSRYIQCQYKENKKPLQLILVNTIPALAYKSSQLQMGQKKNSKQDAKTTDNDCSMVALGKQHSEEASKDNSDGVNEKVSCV

Take `CNCCCN1c2ccccc2CCc2ccccc21` [Desipramine, desipramine, reference compound]: the “Time Immobile” value in the data set with Sprague Dawley rats came out at 60.93 s.

For the compound `[2H]C([2H])(c1cccc(OC)c1)N1C[C@H](C(=O)N(CC)CC)C=C2c3cccc4[nH]cc(c34)C[C@H]21` [Compound 68, (6aR,9R)—N,N-diethyl-7-((3-methoxyphenyl)methyl-d2)-4,6,6a,7,8,9-hexahydroindolo[4,3-fg]quinoline-9-carboxamide], the microsomal CLint was found to be 130 µL/min/mg in the data set “in vitro [1]” (setting [5]), 436 µL/min/mg in “in vitro [3]” (setting [5]) and 360 µL/min/mg in “in vitro [4]” (setting [5]). Further, the figures for the half-life in “in vitro [1]” (read-out: half-life (t1/2)), in “in vitro [3]” (read-out: half-life (t1/2)) and in the data set “in vitro [4]” (read-out: half-life (t1/2)) were 10.6 min, 3.2 min and 3.9 min, respectively. In addition, the “formation of metabolite 83” value in “in vitro [2]” (formation of 83 from 68 compared to formation from 18) is “substantially attenuated compared to formation of 83 from 18”. The metabolised in the data set “in vitro [2]” (T = 0) was 0.1%; in the data set “in vitro [2]” (T = 5), 2.9%; in “in vitro [2]” (T = 15), 4.3%; in “in vitro [2]” (T = 30), 5.7%; in the data set “in vitro [2]” (T = 45), 5.8%; in the data set “in vitro [2]” (T = 60), 6.2%. Besides, the Ki on 5-HT2A receptor was determined as 3.02 nM.
